Patent US20210402011A1, “A COMPOUND FOR THE DETECTION OF HNO IN BIOLOGICAL SYSTEMS” (COUNCIL. OF SCIENTIFIC AND INDUSTRIAL RESEARCH, priority 2016, published 2021)

Assays:
Artemia nauplii = test: Fluorescence imaging of Artemia nauplii; assay type: in vivo; details: probe 1 μM 30 minutes, then HNO
Experimental: Imaging of Artemia nauplii by luminescence was performed using a fluorescence microscope with a 20×, 0.4 NA microscope objective (Olympus), coupled to an intensified CCD camera. The Artemia nauplii were imaged in both bright-field and epifluorescence geometries. The latter was enabled by a fluorescence filter set. The illumination intensity was about 10 W/mm^2.

Hct116 cells [1] = test: CLSM imaging of HNO in Hct116 cells; assay type: cell-based; details: Hct116, probe 1 μM 15 min, then HNO 20 μM
Experimental: (§1) An MTT assay confirmed the non-toxic nature of probe ER-HNO towards live Hct116. Therefore, ER-HNO is tested as an imaging reagent for the detection of HNO in Hct116 colon cancer. The cells are incubated with probe ER-HNO (1 μM) for 15 min at 37° C. in acetonitrile-PBS buffer (0.2:99.8, v/v) at pH 7.2 and no intracellular fluorescence is observed.
For confocal studies, Hct116 cells (3×10^5) were seeded on cover slips placed in 6 well plates. After 24 hours, Hct116 cells were treated with ER-HNO (1 μM) for 30 minutes at 37° C. in a 5% CO2 air environment. Cells were then washed thrice with Phosphate Buffer (1×PBS) and fixed with 4% PFA for 20 minutes and washed again with IX PBS. Nail paint was used to seal the cover slips mounted on the glass slides for each well plates. Again Hct116 cells were pre-treated with ER-HNO (1 μM) for 15 minutes, then Hct116 cells were further expose to Angeli's salt (HNO donor), then cells were washed thrice with media and followed by incubation with ER-HNO (1 μM) for another 15 minutes under same conditions. Cells were again washed with 1×PBS buffer and fixed with 4% PFA for 20 minutes and washed again with 1×PBS. Confocal laser scanning microscopic (CLSM) images were acquired in Olympus Fluoview Microscope with λExt/λMon=530/573 nm.

RAW 264.7 cells [2] = test: MTT assay, in vitro cytotoxicity on RAW 264.7 cells; assay type: cell-based
Experimental: The in vitro cytotoxicity of ER-HNO on RAW 264.7 cells were determined by conventional MTT (3-(4, 5-Dimethylthiazol-2-yl)-2, 5-diphenyltetrazolium bromide) assay. RAW 264.7 cells (5×103) were seeded in each well of a 96 well plate and cultured in a 37° C. incubator supplied with 5% CO2. Cells were maintained in DMEM medium, supplemented with 10% Foetal Bovine Serum and 100 Units of Penicillin Streptomycin antibiotics. After 24 hours the cells were treated with different concentrations of the ER-HNO in triplicates for 24 hours. After the treatment, cells were added with […] of MTT reagent. The plate was then incubated for 4 hours at 37° C. 100 μl of Isopropyl Alcohol was added to each well. Optical density was measured at 570 nm using Multiskan Go (Thermo Scientific) to find the concentration of the cell inhibition. IC50 value has been calculated to be 90 μM.
The formula used for the calculation of the MTT assay for evaluation of the cell viability was as follows:
Cell viability (%)=(Means of absorbance value of treated group/Means of absorbance value of untreated control)×100.

Hct116 cells [3] = test: Flow cytometry, DCFDA staining; assay type: cell-based; details: Angeli's salt 10 uM, 30 uM probe, 2 hrs
Experimental: For DCFDA staining, HCT116 cells were cultured in DMEM medium containing 5 mM glucose supplemented with 10% FBS and 100 Units of antibiotics. Prior to the treatment processes, DMEM medium with 1% FBS was treated with N-Ethylmalemide (NEM) 1 mM and this medium was used to culture the cells further. Cells were treated with Angeli's salt 10 uM, L 30 uM or both for 2 hrs. After treatment cells were harvested by trypsinization and washed with complete DMEM media by centrifugation. Pellet was suspended in 1 ml of PBS buffer. 10 μM DCFDA (Sigma) was added to cells followed by incubation at 37° C. 5% CO2 incubator for 45 mins. DCFDA stained cells were analyzed in BD FACS Canto II using FITC channel. For Annexin V staining cultured HCT116 cells were harvested after trypsinization and washed with 1×PBS buffer. 500 ul of Annexin V binding buffer was used to re-suspend the cells. 5 ul of Annexin-V FITC antibody added to the re-suspended cell and incubated in dark for 5 mins. Antibody stained cells were then analyzed using BD Calibur FACs in FITC channel. The flow cytometry experiment confirmed that probe ER-HNO is capable of reducing RNS & ROS level induced by HNO [FIG. 5 (b)].

RAW 264.7 cells [4] = test: CLSM imaging of HNO in RAW 264.7 cells; assay type: cell-based; details: RAW 264.7, probe 1.0 μM 15 min 37° C., then AS
Experimental: The toxicity of the probe molecule toward live RAW 264.7 macrophages cells and cytotoxicity assays confirmed the low toxicity of the probe. The results encouraged to explore the use of the probe as an imaging reagent for the intracellular detection of HNO in these macrophage cells. Cells in DMEM culture media are incubated with ER-HNO (1.0 μM) for 15 min at 37° C. and subsequently viewed under confocal laser scanning microscope (CLSM) using a 530 nm laser as an excitation source.
RAW 264.7 cells were seeded on cover slips placed in 6 well plates. After 24 hours cells washed with DMEM medium then cells were treated with ER-HNO (1 μM) for 25 minutes. Cells were then washed thrice with culture medium and further treated with Angeli's salt (HNO donor) of different concentration for 30 min. After that cells were washed again with Phosphate Buffer Saline (3×PBS). Then cells were fixed with 4% PFA for 10 min. Again cells were washed thrice and then cover slips mounted using mounting medium. Nail paints was used to seal the coverslips mounted on the glass slides. Images were acquired by using Olympus FluoView FV-1000 Confocal Microscope.
RAW 264.7 cells were seeded on Coverslips (22 mm×22 mm, 170±5 μm square Cover glasses) placed in 6-well plates in DMEM culture medium containing (10% FBS and 1% penicillin-streptomycin) for 24 h at 37° C. 5% CO2. […]

Hct116 cells [5] = test: MTT assay towards live Hct116; assay type: cell-based
Experimental: as §1

SERCA2 = test: Western blot monitoring of SERCA2; assay type: cell-based; details: HCT116 cells, Angeli's salt 10 uM, ER-HNO 30 μM, 24 hrs
Experimental: HCT116 cells were cultured in DMEM medium containing 10% Fetal Bovine Serum (FBS) supplemented with 100 Units of Penicillin Streptomycin antibiotics. Cells were treated with Angeli's salt 10 uM, ER-HNO 30 μM or both for 24 hrs. Prior to the treatment processes, DMEM medium was treated with N-Ethylmalemide (NEM) 1 mM and this medium was used to culture the cells. Post 24 hrs cells harvested and whole cell lysate proteins extracted. 40 ug of the proteins were resolved in SDS PAGE gel and transferred into PVDF membrane using Western Blot methods. The blot was over-night blocked with 5% Bovine Serum Albumin (BSA) at 4° C. 1:4000 dilution of SERCA2 antibody was to probe the blot for 2 hrs at room-temperature (RT). After three washes with 1×TBST, 1:4000 dilution of anti-rabbit HRP conjugated antibody was used to probe the blot for 1 hr at RT. After three washes with IX TBST, the blot was developed using auto-radiography in X-ray film.

[6] = Fluorescence emission studies for HNO detection in aq. PBS buffer-CH3CN
Experimental: The spectroscopic properties of ER-HNO in aq. PBS buffer medium under physiological pH medium. No significant difference is observed in the electronic spectra of ER-HNO and ER-S. In order to check the response of ER-HNO probe (10 uM) with in presence of 20 mole equivalent of various ROS and RNS (HNO, HOCl, H2O2, —OH, TBHP, NO3^−, NO2^−, benzoyl peroxide, S^2− and ascorbate) emission spectra are recorded in aq. […] A turn ON emission response is observed for probe ER-HNO, only in presence of HNO with λEms^Max=580 nm (λExt=530 nm). Moreover, no significant changes are observed in presence of different anionic, cationic as well as biothiols under identical experimental condition. The effects of pH on emission spectrum of probe ER-HNO is also investigated. […] Therefore, to explore the bio analytical application, all the studies are carried out at physiological pH medium.
An enhancement in emission signal are observed at λMax=586 nm (Φ=0.105, for λExt=530 nm) with gradual increasing [HNO] (FIG. 1B). A good linearity is observed between emission intensity and concentration of HNO in the range of 2-15 uM, with a lower detection limit of 2 μM. […] PBS buffer medium.
Stock solution of probe ER-HNO (1×10^−4M) was prepared in HPLC grade acetonitrile. All the analytes stock solution (1×10^−2M) was prepared in aqueous HEPES buffer (10 mM) medium at pH 7.2. […]

## (E)-4-(2-(5,5-difluoro-1,7,9-trimethyl-10-phenyl-5H-5l4,6l4-dipyrrolo[1,2-c:2′,1′-f][1,3,2]diazaborinin-3-yl)vinyl)phenyl 2-(diphenylphosphanyl)benzoate [ER-HNO]
Artemia nauplii
  fluorescence in Artemia nauplii on exposure to HNO: strong fluorescence
Hct116 cells [1]
  intracellular fluorescence after HNO exposure: strong intracellular fluorescence
RAW 264.7 cells [2]; RAW 264.7 cells, 24 hours treatment, read-out: IC50 (MTT cell viability)
  IC50: 90 µM
RAW 264.7 cells [2]; cytotoxicity assays
  toxicity toward live RAW 264.7 macrophages cells: low toxicity
Hct116 cells [3]
  RNS induced by Angeli's Salt (DCFDA staining): reduced
RAW 264.7 cells [4]
  intracellular fluorescence after exposure to AS: strong intracellular fluorescence
Hct116 cells [5]
  toxicity towards live Hct116 (MTT assay): non-toxic
SERCA2
  counteraction of the stabilized expression of SERCA2: at least 50%
[6]; pH 4-10
  emission intensity of the probe within pH range 4-10: remains unaltered
[6]; probe 10 uM, 20 mole equivalent of HOCl, H2O2, OH, TBHP, NO3-, NO2-, benzoyl peroxide, S2-, ascorbate
  change in emission intensity in presence of other ROS/RNS (selectivity): no change in emission intensity
